The subject of test [1] is NCI-H226. The test is described as follows: Growth inhibition of human NCI-H226 cells assessed as cell growth at 10 uM incubated for 48 hrs by sulforhodamine B assay relative to control. The note with it: read-out: Activity. It counts as functional. For orientation: Sulforhodamine B stains cellular protein and so reports cell mass.
Test [2] relates to NCI-H460. The test is described as follows: Growth inhibition of human NCI-H460 cells assessed as cell growth at 10 uM incubated for 48 hrs by sulforhodamine B assay relative to control. The settings on record: read-out: Activity. Type of test: functional.
In test [3] the test system is OVCAR-4. Nature of the test: Growth inhibition of human OVCAR-4 cells assessed as cell growth at 10 uM incubated for 48 hrs by sulforhodamine B assay relative to control. The note with it: read-out: Activity. Type of test: functional.
Test [4] relates to NCI/ADR-RES. The test is described as follows: Growth inhibition of human NCI/ADR-RES cells assessed as cell growth at 10 uM incubated for 48 hrs by sulforhodamine B assay relative to control. Type of test: functional. The note with it: read-out: Activity.
The test system of test [5] is LOX IMVI. Nature of the test: Growth inhibition of human LOX IMVI cells assessed as cell growth at 10 uM incubated for 48 hrs by sulforhodamine B assay relative to control. Type of test: functional. The settings on record: read-out: Activity.
The subject of test [6] is A549. Nature of the test: Growth inhibition of human A549/ATCC cells assessed as cell growth at 10 uM incubated for 48 hrs by sulforhodamine B assay relative to control. Type of test: functional. The settings on record: read-out: Activity.
Test [7] deals with SR. The test is described as follows: Growth inhibition of human SR cells assessed as cell growth at 10 uM incubated for 48 hrs by sulforhodamine B assay relative to control. It counts as functional. The settings on record: read-out: Activity.
Test [8] deals with SK-MEL-5. The test is described as follows: Growth inhibition of human SK-MEL-5 cells assessed as cell growth at 10 uM incubated for 48 hrs by sulforhodamine B assay relative to control. It counts as functional. The settings on record: read-out: Activity.
Test [9] concerns EKVX. Nature of the test: Growth inhibition of human EKVX cells assessed as cell growth at 10 uM incubated for 48 hrs by sulforhodamine B assay relative to control. Type of test: functional. The settings on record: read-out: Activity.
Test [10] relates to SK-MEL-28. The test is described as follows: Growth inhibition of human SK-MEL-28 cells assessed as cell growth at 10 uM incubated for 48 hrs by sulforhodamine B assay relative to control. Type of test: functional. The note with it: read-out: Activity.
The subject of test [11] is MDA-MB-231. Nature of the test: Growth inhibition of human MDA-MB-231 cells assessed as cell growth at 10 uM incubated for 48 hrs by sulforhodamine B assay relative to control. It counts as functional. The settings on record: read-out: Activity.
Test [12] has as its system TK-10. The test is described as follows: Growth inhibition of human TK-10 cells assessed as cell growth at 10 uM incubated for 48 hrs by sulforhodamine B assay relative to control. It counts as functional. The note with it: read-out: Activity.
The test system of test [13] is SN12C. Nature of the test: Growth inhibition of human SN12C cells assessed as cell growth at 10 uM incubated for 48 hrs by sulforhodamine B assay relative to control. Type of test: functional. The note with it: read-out: Activity.
Test [14] relates to 786-0. Nature of the test: Growth inhibition of human 786-0 cells assessed as cell growth at 10 uM incubated for 48 hrs by sulforhodamine B assay relative to control. It counts as functional. The settings on record: read-out: Activity.
Test [15] relates to SW-620. The test is described as follows: Growth inhibition of human SW-620 cells assessed as cell growth at 10 uM incubated for 48 hrs by sulforhodamine B assay relative to control. Type of test: functional. The settings on record: read-out: Activity.
The test system of test [16] is UACC-257. Nature of the test: Growth inhibition of human UACC-257 cells assessed as cell growth at 10 uM incubated for 48 hrs by sulforhodamine B assay relative to control. It counts as functional. The note with it: read-out: Activity.
Test [17] deals with SF-295. The test is described as follows: Growth inhibition of human SF-295 cells assessed as cell growth at 10 uM incubated for 48 hrs by sulforhodamine B assay relative to control. It counts as functional. The settings on record: read-out: Activity.
In test [18] the test system is Hs-578T. The test is described as follows: Growth inhibition of human Hs-578T cells assessed as cell growth at 10 uM incubated for 48 hrs by sulforhodamine B assay relative to control. It counts as functional. The settings on record: read-out: Activity.
The subject of test [19] is Poly(dA-dT)oligonucleotide. Nature of the test: Displacement of ethidium bromide from minor groove of poly(dA:dT) dsDNA (unknown origin) by fluorescence spectrophotometry. It counts as nucleic-acid assay.
The subject of test [20] is Poly(dA-dT)oligonucleotide. Nature of the test: Binding affinity to minor groove of poly(dA:dT) dsDNA (unknown origin) assessed as change in melting temperature by UV-vis spectrophotometry based DNA melting assay. It counts as nucleic-acid assay.

For orientation: ΔTm means the change in melting temperature against a reference sample.

For `CC(=O)Nc1cccc(NC(=O)c2ccc(C(=O)Nc3cc(CO)cc(NC(C)=O)c3)cc2)c1`, the growth at 10 µM in test [1] was 97.1%; in test [2], 112%; in test [3], 68.7%; in test [4], 113%; in test [5], 103%; in test [6], 108%. Moreover, the growth at 10 µM in [7] was 104%; in [8], 103%; in test [9], 112%; in test [10] it was 111%; in test [11], 110%; in test [12], 98.8%. For the same compound, the growth at 10 µM in test [13] was 106%; in test [14] it was 112%; in test [15], 104%; in test [16] it was 101%.

Take `CC(=O)Nc1cc(CO)cc(NC(=O)c2ccc(C(=O)NCCCN3CCOCC3)cc2)c1`: the growth at 10 µM in [1] worked out at 95.6%; in test [2] it was 111%; in test [3], 67.9%; in test [4], 113%; in test [5], 101%; in test [6], 107%. Moreover, the growth at 10 µM was 94.1% in test [7]; 102% in [8]; 115% in [9]; 102% in test [10]; 103% in [11]; 91.9% in [12]. The growth at 10 µM amounted to 104% in test [13], 101% in test [14], 102% in test [15] and 103% in test [16].

On to `CC(=O)Nc1cc(CO)cc(NC(=O)c2ccc(C(=O)Nc3cc(CO)cc(NC(C)=O)c3)cc2)c1`, for which the growth at 10 µM amounted to 94.9% in [1]; 96.8% in test [17]; 107% in test [2]; 110% in [4]; 96.8% in test [5]; 108% in [6]. Also, the growth at 10 µM in test [7] was determined as 106%; in test [8], 104%; in [9], 115%; in test [10], 117%; in [11] it was 104%; in test [12] it was 103%. The growth at 10 µM in [13] came to 97.4%; in [14], 103%; in test [15], 114%; in test [18], 101%; in [16] it was 106%.

Consider `CC(=O)Nc1cc(CO)cc(NC(=O)c2cccc(NC(=O)CCCN3CCOCC3)c2)c1`, for which the growth at 10 µM in test [1] came to 96.7%; in test [17] it was 120%; in [2] it was 108%; in test [4], 107%; in test [5] it was 99.8%; in [6], 101%. Moreover, the growth at 10 µM turned out to be 105% in test [7]; 104% in test [8]; 113% in [9]; 115% in test [10]; 104% in [11]; 94% in test [12]. Further, the growth at 10 µM in [13] is 101%; in test [14] it was 99.4%; in test [15] it was 108%; in test [18], 114%; in [16], 107%.

For the compound `CC(=O)Nc1cc(CO)cc(NC(=O)c2ccc(C(=O)NCCCN(C)C)cc2)c1`, the growth at 10 µM was 92% in [1]; 112% in test [2]; 103% in test [3]; 112% in test [4]; 97.4% in test [5]; 107% in [6]. Also, the growth at 10 µM in test [7] is 91.7%; in test [8], 96.4%; in [9] it was 108%; in test [10], 108%; in test [11] it was 105%; in test [12], 99%. Besides, the growth at 10 µM worked out at 95.6% in test [13]; 102% in test [14]; 107% in test [15]; 114% in [18]; 107% in test [16]. In addition, the C50 in test [19] is over 1 mM.

Turning to `CCN(CC)CC(=O)Nc1ccc(C(=O)Nc2cc(CO)cc(NC(C)=O)c2)cc1`, the growth at 10 µM in test [1] was 95.8%; in test [17], 136%; in test [2], 109%; in [4] it was 110%; in test [5] it was 106%; in [6], 95.7%. Also, the growth at 10 µM in test [8] stood at 103%; in test [9], 104%; in [10], 116%; in test [11] it was 112%; in test [12], 99.2%; in test [13], 103%. The growth at 10 µM in test [14] stood at 97.4%; in [15], 109%; in test [16], 103%. Moreover, the ΔTm in test [20] worked out at 10.2 °C.

For `CC(=O)Nc1cccc(NC(=O)c2ccc(C(=O)Nc3cc(CCl)cc(NC(C)=O)c3)cc2)c1`, the growth at 10 µM in [1] was determined as 101%; in [2], 112%; in test [3], 119%; in test [4], 109%; in [5] it was 110%; in [6], 118%. Further, the growth at 10 µM worked out at 103% in test [7]; 102% in test [8]; 114% in [9]; 115% in test [10]; 115% in [11]; 113% in test [12]. The growth at 10 µM in test [13] was 102%; in test [14], 112%; in test [15] it was 114%; in [18], 114%; in test [16] it was 106%.

Regarding `CCN(CC)CC(=O)Nc1cccc(C(=O)Nc2cc(CO)cc(NC(C)=O)c2)c1`, the growth at 10 µM in [1] came to 95.7%; in test [17], 87%; in test [2], 104%; in [4], 107%; in [5], 98.7%; in test [6], 103%. In addition, the growth at 10 µM in [8] turned out to be 102%; in test [9], 120%; in [10], 112%; in [11], 126%; in test [12] it was 96.6%; in test [13], 112%. The growth at 10 µM in [14] worked out at 98.7%; in test [15], 115%; in [18], 130%; in test [16] it was 101%. The same compound yielded a C50 in test [19] of over 1 mM. Further, the thermal shift (ΔTm) in test [20] amounted to 8.7 °C.

Take `CC(=O)Nc1cc(CO)cc(NC(=O)c2ccc(NC(=O)CCCN3CCOCC3)cc2)c1`: the growth at 10 µM worked out at 95.6% in [1]; 150% in test [17]; 110% in [2]; 106% in [4]; 110% in test [5]; 104% in test [6]. Also, the growth at 10 µM was found to be 108% in [7]; 100% in test [8]; 103% in test [9]; 113% in test [10]; 102% in [11]; 93.1% in test [12]. Also, the growth at 10 µM was found to be 97% in test [13]; 97% in [14]; 103% in test [15]; 114% in test [18]; 106% in test [16].

`CC(=O)Nc1ccc(C(=O)Nc2cc(CO)cc(NC(C)=O)c2)cc1`: the growth at 10 µM came out at 99.9% in test [1]; 109% in test [2]; 110% in test [4]; 105% in test [5]; 108% in test [6]; 92.1% in test [7]. Besides, the growth at 10 µM in [8] was 98.8%; in [9], 112%; in [10], 116%; in test [11] it was 115%; in [12], 101%; in test [13], 104%. Besides, the growth at 10 µM in test [14] was 99.4%; in test [15] it was 118%; in [18] it was 121%; in test [16] it was 107%.

Values taken from ChEMBL document CHEMBL4715697, “Synthesis and biological activity of benzamide DNA minor groove binders” (2016).
